Bridge positions count the residues as written; N and C are the ends. Square brackets hold non-standard residues; d marks the D form.
System: SARS-CoV-2 M^pro
Conditions: 37 °C, up to 1 h

Substance: AcyLQYAVLRHKRREC ({CH2CO}-[dY]LQYAVLRHKRREC-NH2; thioether N-14; SMILES CC(C)C[C@@H]1NC(=O)[C@H](C(C)C)NC(=O)[C@H](C)NC(=O)[C@H](Cc2ccc(O)cc2)NC(=O)[C@H](CCC(N)=O)NC(=O)[C@H](CC(C)C)NC(=O)[C@@H](Cc2ccc(O)cc2)NC(=O)CSC[C@@H](C(N)=O)NC(=O)[C@H](CCC(=O)O)NC(=O)[C@H](CCCNC(=N)N)NC(=O)[C@H](CCCNC(=N)N)NC(=O)[C@H](CCCCN)NC(=O)[C@H](Cc2c[nH]cn2)NC(=O)[C@H](CCCNC(=N)N)NC1=O)
- cleaved bond: Gln3-Tyr4, minor, 1 h

Source: publication PMC8966731 (2022)
